# Measured values from ChEMBL document CHEMBL1143091, “Synthesis and SAR studies of biaryloxy-substituted triazoles as antifungal agents” (2008).
# Key:
# Type in all cases: functional
# Candida tropicalis = assay: Antimicrobial activity against Candida tropicalis isolates
# Fonsecaea compacta = assay: Antimicrobial activity against Fonsecaea compacta isolates
# Candida parapsilosis = assay: Antimicrobial activity against […] isolates; conditions: Lodderomyces parapsilosis
# Trichophyton rubrum = assay: Antimicrobial activity against Trichophyton rubrum isolates
# Candida albicans = assay: Antimicrobial activity against Candida albicans ATCC 76615
# Cryptococcus neoformans = assay: Antimicrobial activity against Cryptococcus neoformans ATCC 32609
# Aspergillus fumigatus = assay: Antimicrobial activity against Aspergillus fumigatus isolates
# Nannizzia gypsea = assay: Antimicrobial activity against Microsporum gypseum isolates
smiles,measurement,setting,value
ON=Cc1ccc(-c2ccc(OCC(O)(Cn3cncn3)c3ccc(F)cc3F)cc2)cc1 (stereo not drawn),MIC,Candida tropicalis,0.0156 µg/mL
same,MIC,Fonsecaea compacta,1 µg/mL
same,MIC,Candida parapsilosis,0.0039 µg/mL
same,MIC,Trichophyton rubrum,1 µg/mL
same,MIC,Candida albicans,0.0039 µg/mL
same,MIC,Cryptococcus neoformans,1 µg/mL
same,MIC,Aspergillus fumigatus,> 64 µg/mL
same,MIC,Nannizzia gypsea,1 µg/mL
